Molecules are shown by their SMILES. pIC50: −log10 of the molar value.

The target of assay [1] is EED (1-441)-His protein (Homo sapiens (Human), UniProt O75530). The assay is described as follows: EED-H3K27Me3 peptide competition binding assay by AlphaScreen. As to conditions: read-out: (a) IC50 EED Alphascreen binding Qualified. The source says:
EED-H3K27Me3 peptide competition binding assay by AlphaScreen (α-screen)
A general note: Alpha assays give light when donor and acceptor beads are brought close together.

Assay [2] has as its target wild type PRC2 (wtPRC2) complex (Homo sapiens (Human), UniProt O75530). Description: EED LC-MS assay. The class given is biochemical. Particulars: read-out: (b) IC50 EED LC-MS Qualified. As to the method:
A 6 μL solution of 3 μM of the peptide substrate H3K27Me0 (histone H3[21-44]-biotin) in reaction buffer was added to initiate each reaction. […] ELISA (H3K27 Methylation) Assay

Sequence of wild type PRC2 (wtPRC2) complex (O75530 whole entry): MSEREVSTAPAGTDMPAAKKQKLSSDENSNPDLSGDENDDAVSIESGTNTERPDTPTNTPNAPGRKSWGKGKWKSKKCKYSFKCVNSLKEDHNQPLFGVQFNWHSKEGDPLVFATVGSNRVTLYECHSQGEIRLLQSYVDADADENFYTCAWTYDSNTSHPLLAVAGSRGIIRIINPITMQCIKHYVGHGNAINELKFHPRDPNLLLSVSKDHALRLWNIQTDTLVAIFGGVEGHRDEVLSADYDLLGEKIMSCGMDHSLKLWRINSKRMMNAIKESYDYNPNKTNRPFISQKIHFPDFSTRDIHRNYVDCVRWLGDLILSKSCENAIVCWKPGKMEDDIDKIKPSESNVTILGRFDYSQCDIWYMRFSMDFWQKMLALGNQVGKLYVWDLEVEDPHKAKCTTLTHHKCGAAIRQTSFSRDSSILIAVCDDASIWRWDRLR
Sequence of wild type PRC2 (wtPRC2) complex (Q15910 whole entry partner): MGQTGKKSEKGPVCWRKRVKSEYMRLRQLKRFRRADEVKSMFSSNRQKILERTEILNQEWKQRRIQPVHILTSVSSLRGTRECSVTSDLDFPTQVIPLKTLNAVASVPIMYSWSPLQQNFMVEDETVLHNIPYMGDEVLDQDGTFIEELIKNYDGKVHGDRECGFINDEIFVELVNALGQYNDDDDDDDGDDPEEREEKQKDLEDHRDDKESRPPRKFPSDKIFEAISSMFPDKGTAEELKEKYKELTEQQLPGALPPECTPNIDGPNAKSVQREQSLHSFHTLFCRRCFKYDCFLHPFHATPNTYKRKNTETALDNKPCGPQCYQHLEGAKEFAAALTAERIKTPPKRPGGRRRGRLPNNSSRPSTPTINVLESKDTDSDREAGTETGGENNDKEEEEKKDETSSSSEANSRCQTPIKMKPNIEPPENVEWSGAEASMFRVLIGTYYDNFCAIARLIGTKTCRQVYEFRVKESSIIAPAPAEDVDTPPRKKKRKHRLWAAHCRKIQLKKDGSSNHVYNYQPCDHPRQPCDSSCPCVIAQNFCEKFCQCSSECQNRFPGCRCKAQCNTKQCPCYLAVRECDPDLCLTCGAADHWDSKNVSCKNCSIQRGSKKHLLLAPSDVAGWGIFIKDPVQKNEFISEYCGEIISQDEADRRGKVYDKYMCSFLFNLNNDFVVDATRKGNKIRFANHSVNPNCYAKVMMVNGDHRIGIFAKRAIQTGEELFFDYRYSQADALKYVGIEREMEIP
Sequence of wild type PRC2 (wtPRC2) complex (Q15022 whole entry partner): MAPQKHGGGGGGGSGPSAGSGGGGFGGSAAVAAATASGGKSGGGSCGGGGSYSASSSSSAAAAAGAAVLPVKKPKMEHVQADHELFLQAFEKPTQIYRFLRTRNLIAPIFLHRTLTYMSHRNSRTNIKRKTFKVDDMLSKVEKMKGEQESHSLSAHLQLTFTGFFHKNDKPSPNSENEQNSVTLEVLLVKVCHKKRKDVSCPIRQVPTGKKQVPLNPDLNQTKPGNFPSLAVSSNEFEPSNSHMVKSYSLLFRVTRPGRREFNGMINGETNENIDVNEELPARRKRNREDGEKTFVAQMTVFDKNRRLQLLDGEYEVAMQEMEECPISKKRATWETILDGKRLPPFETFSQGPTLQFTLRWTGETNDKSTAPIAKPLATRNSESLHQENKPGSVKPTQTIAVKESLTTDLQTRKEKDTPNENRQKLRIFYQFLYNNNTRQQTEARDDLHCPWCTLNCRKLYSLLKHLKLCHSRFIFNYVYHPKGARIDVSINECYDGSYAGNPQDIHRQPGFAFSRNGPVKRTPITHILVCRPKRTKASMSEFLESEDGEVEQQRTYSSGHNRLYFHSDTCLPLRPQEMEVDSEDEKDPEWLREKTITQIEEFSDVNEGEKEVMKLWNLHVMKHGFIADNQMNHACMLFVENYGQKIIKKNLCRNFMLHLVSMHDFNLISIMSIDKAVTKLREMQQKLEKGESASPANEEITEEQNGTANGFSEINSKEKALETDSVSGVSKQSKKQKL
Sequence of EED (1-441)-His protein (O75530 whole entry): as the sequence (O75530 whole entry) above

In the case of `COCCn1nc(C)c(-c2cnc(NCc3cccc4c3CCO4)n3cnnc23)c1C` [Example 66, N-((2,3-dihydrobenzofuran-4-yl)methyl)-8-(1-(2-methoxyethyl)-3,5-dimethyl-1H-pyrazol-4-yl)-[1,2,4]triazolo[4,3-c]pyrimidin-5-amine], the results for the pIC50 in assay [1] and in assay [2] were 7.81 and 7.35, respectively.
On to `Cn1cc(-c2cnc(NCc3c(F)ccc4c3CCO4)n3cnnc23)c(C(F)(F)F)n1` [Example 170, N-((5-fluoro-2,3-dihydrobenzofuran-4-yl)methyl)-8-(1-methyl-3-(trifluoromethyl)-1H-pyrazol-4-yl)-[1,2,4]triazolo[4,3-c]pyrimidin-5-amine], for which the pIC50 in assay [1] is 7.97; in assay [2], 7.92.
For `OCc1ccc(-c2cnc(NCc3c(F)ccc4c3CCO4)n3cnnc23)cn1` [Example 234, (5-(5-(((5-fluoro-2,3-dihydrobenzofuran-4-yl)methyl)amino)-[1,2,4]triazolo[4,3-c]pyrimidin-8-yl)pyridin-2-yl)methanol], in that order: 8.27 and 7.95.
In the same order, the values of `CN(C)c1ccc(-c2cnc(NCc3cccc4c3CCO4)n3cnnc23)cn1` [Example 61, N-((2,3-dihydrobenzofuran-4-yl)methyl)-8-(6-(dimethylamino)pyridin-3-yl)-[1,2,4]triazolo[4,3-c]pyrimidin-5-amine] are 7.89 and 7.71.
With `Cc1ccc(-c2cnc(NCc3c(F)ccc4c3CCO4)n3cnnc23)cn1` [Example 57, N-((5-fluoro-2,3-dihydrobenzofuran-4-yl)methyl)-8-(6-methylpyridin-3-yl)-[1,2,4]triazolo[4,3-c]pyrimidin-5-amine], the pIC50 in assay [1] was 8.08; in assay [2] it was 7.73.
Take `Fc1ccc2c(c1CNc1ncc(-c3ccc(C(F)(F)F)nc3)c3nncn13)CCO2` [Example 160, N-((5-fluoro-2,3-dihydrobenzofuran-4-yl)methyl)-8-(6-(trifluoromethyl)pyridin-3-yl)-[1,2,4]triazolo[4,3-c]pyrimidin-5-amine]: the pIC50 in assay [1] was 8.23; in assay [2] it was 7.95.
For `CS(=O)(=O)c1ccc(-c2cnc(NCc3cccc4c3CCO4)n3cnnc23)cn1` [Example 28, N-((2,3-dihydrobenzofuran-4-yl)methyl)-8-(6-(methylsulfonyl)pyridin-3-yl)-[1,2,4]triazolo[4,3-c]pyrimidin-5-amine], in that order: 7.95 and 7.56.
In the same order, the values of `COc1ncccc1-c1cnc(NCc2c(F)ccc3c2CCO3)n2cnnc12` [Example 141, N-((5-fluoro-2,3-dihydrobenzofuran-4-yl)methyl)-8-(2-methoxypyridin-3-yl)-[1,2,4]triazolo[4,3-c]pyrimidin-5-amine] are 7.77 and 7.38.
For `N#Cc1ccc(-c2cnc(NCc3cccc4c3CCO4)n3cnnc23)cn1` [Example 62, 5-(5-(((2,3-dihydrobenzofuran-4-yl)methyl)amino)-[1,2,4]triazolo[4,3-c]pyrimidin-8-yl)picolinonitrile], in that order: 7.80 and 7.53.
As to `Cc1nc(N)ccc1-c1cnc(NCc2c(F)ccc3c2CCO3)n2cnnc12` [Example 156, 8-(6-amino-2-methylpyridin-3-yl)-N-((5-fluoro-2,3-dihydrobenzofuran-4-yl)methyl)-[1,2,4]triazolo[4,3-c]pyrimidin-5-amine], the pIC50 in assay [1] was 8.40; in assay [2] it was 7.76.
For `Fc1ccc2c(c1CNc1ncc(-c3ccc(N4CCOCC4)nc3)c3nncn13)CCO2` [Example 92, N-((5-fluoro-2,3-dihydrobenzofuran-4-yl)methyl)-8-(6-morpholinopyridin-3-yl)-[1,2,4]triazolo[4,3-c]pyrimidin-5-amine], in that order: 7.72 and 7.29.
For `Cc1nn(C2CC2)c(C)c1-c1cnc(NCc2c(F)ccc3c2CCO3)n2cnnc12` [Example 179, 8-(1-cyclopropyl-3,5-dimethyl-1H-pyrazol-4-yl)-N-((5-fluoro-2,3-dihydrobenzofuran-4-yl)methyl)-[1,2,4]triazolo[4,3-c]pyrimidin-5-amine], in that order: 7.91 and 7.79.
For `CN(C)C(=O)c1ccc(-c2cnc(NCc3c(F)ccc4c3CCO4)n3cnnc23)cc1` [Example 55, 4-(5-(((5-fluoro-2,3-dihydrobenzofuran-4-yl)methyl)amino)-[1,2,4]triazolo[4,3-c]pyrimidin-8-yl)-N,N-dimethylbenzamide], in that order: 7.68 and 7.50.
`OCc1ncccc1-c1cnc(NCc2c(F)ccc3c2C(O)CO3)n2cnnc12` (stereo not shown) [Example 243, 5-fluoro-4-(((8-(2-(hydroxymethyl)pyridin-3-yl)-[1,2,4]triazolo[4,3-c]pyrimidin-5-yl)amino)methyl)-2,3-dihydrobenzofuran-3-ol]: the pIC50 in assay [1] is 7.81; in assay [2] it was 7.23.
In the same order, the values of `c1cc(CNc2ncc(-c3ccc(C4CC4)nc3)c3nncn23)c2c(c1)OCC2` [Example 65, 8-(6-cyclopropylpyridin-3-yl)-N-((2,3-dihydrobenzofuran-4-yl)methyl)-[1,2,4]triazolo[4,3-c]pyrimidin-5-amine] are 7.74 and 7.70.
In the same order, the values of `Cc1cnccc1-c1cnc(NCc2c(F)ccc3c2CCO3)n2cnnc12` [Example 163, N-((5-fluoro-2,3-dihydrobenzofuran-4-yl)methyl)-8-(3-methylpyridin-4-yl)-[1,2,4]triazolo[4,3-c]pyrimidin-5-amine] are 8.39 and 7.96.
In the same order, the values of `Cc1cc(-c2cnc(NCc3c(F)ccc4c3CCO4)n3cnnc23)ccn1` [Example 116, N-((5-fluoro-2,3-dihydrobenzofuran-4-yl)methyl)-8-(2-methylpyridin-4-yl)-[1,2,4]triazolo[4,3-c]pyrimidin-5-amine] are 8.33 and 8.12.
In the case of `Cc1cc(F)ccc1-c1cnc(NCc2c(F)ccc3c2CCO3)n2cnnc12` [Example 165, N-((5-fluoro-2,3-dihydrobenzofuran-4-yl)methyl)-8-(4-fluoro-2-methylphenyl)-[1,2,4]triazolo[4,3-c]pyrimidin-5-amine], the pIC50 in assay [1] was 8.35; in assay [2], 8.13.
In the same order, the values of `CC1CN(c2ccc(-c3cnc(NCc4cccc5c4CCO5)n4cnnc34)cn2)CC(C)O1` (stereo not shown) [Example 74, N-((2,3-dihydrobenzofuran-4-yl)methyl)-8-(6-(2,6-dimethylmorpholino)pyridin-3-yl)-[1,2,4]triazolo[4,3-c]pyrimidin-5-amine] are 7.05 and 6.86.
With `CS(=O)(=O)Nc1ccc(-c2cnc(NCc3cccc4c3CCO4)n3cnnc23)cc1F` [Example 33, N-(4-(5-(((2,3-dihydrobenzofuran-4-yl)methyl)amino)-[1,2,4]triazolo[4,3-c]pyrimidin-8-yl)-2-fluorophenyl)methanesulfonamide], the figures for the pIC50 in assay [1] and in assay [2] were 7.55 and 7.76, respectively.
In the same order, the values of `Cc1c(-c2cnc(NCc3c(F)ccc4c3CCO4)n3cnnc23)cnn1C(C)C` [Example 188, N-((5-fluoro-2,3-dihydrobenzofuran-4-yl)methyl)-8-(1-isopropyl-5-methyl-1H-pyrazol-4-yl)-[1,2,4]triazolo[4,3-c]pyrimidin-5-amine] are 8.64 and 8.42.
For `Fc1ccc2c(c1CNc1ncc(-c3ccnc(C(F)(F)F)c3)c3nncn13)CCO2` [Example 185, N-((5-fluoro-2,3-dihydrobenzofuran-4-yl)methyl)-8-(2-(trifluoromethyl)pyridin-4-yl)-[1,2,4]triazolo[4,3-c]pyrimidin-5-amine], in that order: 8.36 and 8.17.
In the same order, the values of `CS(=O)(=O)c1cccc(-c2cnc(NCc3cccc4c3CCO4)n3cnnc23)c1` [Example 27, N-((2,3-dihydrobenzofuran-4-yl)methyl)-8-(3-(methylsulfonyl)phenyl)-[1,2,4]triazolo[4,3-c]pyrimidin-5-amine] are 7.70 and 7.33.
For the compound `COc1ccc(-c2cnc(NCc3c(F)ccc4c3CCO4)n3cnnc23)c(C)n1` [Example 155, N-((5-fluoro-2,3-dihydrobenzofuran-4-yl)methyl)-8-(6-methoxy-2-methylpyridin-3-yl)-[1,2,4]triazolo[4,3-c]pyrimidin-5-amine], the pIC50 is 7.77 in assay [1] and 7.34 in assay [2].
For `COC(=O)N1CCN(c2ccc(-c3cnc(NCc4cccc5c4CCO5)n4cnnc34)cn2)CC1` [Example 97, methyl 4-(5-(5-(((2,3-dihydrobenzofuran-4-yl)methyl)amino)-[1,2,4]triazolo[4,3-c]pyrimidin-8-yl)pyridin-2-yl)piperazine-1-carboxylate], in that order: 8.21 and 8.07.
For `O=C1CN(Cc2ccc(-c3cnc(NCc4cccc5c4CCO5)n4cnnc34)cn2)CCN1` [Example 133, 4-((5-(5-(((2,3-dihydrobenzofuran-4-yl)methyl)amino)-[1,2,4]triazolo[4,3-c]pyrimidin-8-yl)pyridin-2-yl)methyl)piperazin-2-one], in that order: 8.06 and 7.65.
In the same order, the values of `CN(C)C(=O)c1ccc(-c2cnc(NCc3c(F)ccc4c3CCO4)n3cnnc23)cn1` [Example 140, 5-(5-(((5-fluoro-2,3-dihydrobenzofuran-4-yl)methyl)amino)-[1,2,4]triazolo[4,3-c]pyrimidin-8-yl)-N,N-dimethylpicolinamide] are 7.90 and 7.26.
Take `Cc1ncccc1-c1cnc(NCc2c(F)ccc3occc23)n2cnnc12` [Example 207, N-((5-fluorobenzofuran-4-yl)methyl)-8-(2-methylpyridin-3-yl)-[1,2,4]triazolo[4,3-c]pyrimidin-5-amine]: the pIC50 in assay [2] was 6.74.

What is called pIC50 is the negative decadic logarithm of the IC50, by convention in mol/L.
